According to patent publication EP0908457B1, “3-(1,2-benzisothiazol- and isoxazol-5-Y1)-2,4(1H,3H)-pyrimidinedione or thione and 3-(1,2-benzisothiazol- and isoxazol-5-y1)-4(3H)-pyrimidinone or thione herbicidal agents” (BASF AKTIENGESELLSCHAFT, priority 1997, dated 1999):

Assays:
[1] = test system: Monochoria vaginalis, Presl.; assay: Preemergence weed control under flooded paddy conditions, MOOVA (Monochoria); assay type: in vivo; settings: preemergence, flooded paddy
[2] = test system: Cyperus iria; assay: Preemergence weed control under flooded paddy conditions, CYPIR (Rice Flatsedge); assay type: in vivo; settings: preemergence, flooded paddy
[3] = test system: Sagittaria pygmaea, L.; assay: Preemergence weed control under flooded paddy conditions, SAGPY (Arrowhead (Pygmaea)); assay type: in vivo; settings: preemergence, flooded paddy
[4] = test system: Echinochloa oryzoides (Ard.) Fritsch.; assay: Preemergence weed control under flooded paddy conditions, ECHORC (Watergrass (Calif.)); assay type: in vivo; settings: preemergence, flooded paddy
[5] = test system: Cyperus serotinus, Rottb.; assay: Preemergence weed control under flooded paddy conditions, CYPSE (Flatsedge); assay type: in vivo; settings: preemergence
[6] = test system: Oryza sativa, (L.) Tebonnet; assay: Rice tolerance to post-transplant applications under flooded paddy conditions (Example 187), ORYSAT (Rice, Tebonnet)
[7] = Rate 0.0320 kg/ha, rated three to four weeks after treatment
[8] = Rate 0.0620 kg/ha, rated three to four weeks after treatment
[9] = Rate 0.1250 kg/ha, rated three to four weeks after treatment
[10] = Rate 0.2500 kg/ha, rated three to four weeks after treatment
[11] = Rate 0.0320 kg/ha, rated 3-4 weeks after treatment
[12] = Rate 0.0620 kg/ha, rated 3-4 weeks after treatment
[13] = Rate 0.1250 kg/ha, rated 3-4 weeks after treatment
[14] = Rate 0.2500 kg/ha, rated 3-4 weeks after treatment
Also: meaning of each grade not given here.

Structure (SMILES): Cc1ccc(OC(C)(C)C(=O)NS(C)(=O)=O)c(-c2nsc3ccc(-n4c(=O)cc(C(F)(F)F)n(C)c4=O)cc23)c1 [Example 576, Propionamide, 2-{{2-{5-[3,6-dihydro-3-methyl-2,6-dioxo-4-(trifluoromethyl)-1(2H)-pyrimidinyl]-1,2-benzisothiazol-3-yl}-p-tolyl}oxy}-2-methyl-N-(methylsulfonyl)-]
- herbicidal effect rating, MOOVA [1, 7]: 7.0
- herbicidal effect rating, MOOVA [1, 8]: 9.0
- herbicidal effect rating, MOOVA [1, 9]: 9.0
- herbicidal effect rating, MOOVA [1, 10]: 9.0
- herbicidal effect rating, CYPIR [2, 7]: 0.0
- herbicidal effect rating, CYPIR [2, 8]: 3.0
- herbicidal effect rating, CYPIR [2, 9]: 3.0
- herbicidal effect rating, CYPIR [2, 10]: 5.0
- herbicidal effect rating, SAGPY [3, 7]: 0.0
- herbicidal effect rating, SAGPY [3, 8]: 0.0
- herbicidal effect rating, SAGPY [3, 9]: 3.0
- herbicidal effect rating, SAGPY [3, 10]: 4.0
- herbicidal effect rating, ECHORC [4, 7]: 6.0
- herbicidal effect rating, ECHORC [4, 8]: 7.0
- herbicidal effect rating, ECHORC [4, 9]: 7.0
- herbicidal effect rating, ECHORC [4, 10]: 9.0
- herbicidal effect rating, CYPSE [5, 7]: 0.0
- herbicidal effect rating, CYPSE [5, 8]: 0.0
- herbicidal effect rating, CYPSE [5, 9]: 0.0
- herbicidal effect rating, CYPSE [5, 10]: 4.0
- herbicidal effect rating ORYSAT [6, 7]: 4.0
- herbicidal effect rating ORYSAT [6, 8]: 7.0
- herbicidal effect rating ORYSAT [6, 9]: 7.0
- herbicidal effect rating ORYSAT [6, 10]: 9.0

Structure (SMILES): CSCCCCOC(=O)COc1ccc(C)cc1-c1nsc2ccc(-n3c(=O)cc(C(F)(F)F)n(C)c3=O)cc12 [Example 518, Acetic acid, {{2-{5-[3,6-dihydro-3-methyl-2,6-dioxo-4-(trifluoromethyl)-1(2H)-pyrimidinyl]-1,2-benzisothiazol-3-yl}-p-tolyl}oxy}-, 4-(methylthio)butyl ester]
- herbicidal effect rating, MOOVA [1, 11]: 4.0
- herbicidal effect rating, MOOVA [1, 12]: 7.0
- herbicidal effect rating, MOOVA [1, 13]: 9.0
- herbicidal effect rating, MOOVA [1, 14]: 9.0
- herbicidal effect rating, CYPIR [2, 11]: 0.0
- herbicidal effect rating, CYPIR [2, 12]: 2.0
- herbicidal effect rating, CYPIR [2, 13]: 2.0
- herbicidal effect rating, CYPIR [2, 14]: 4.0
- herbicidal effect rating, SAGPY [3, 11]: 0.0
- herbicidal effect rating, SAGPY [3, 12]: 0.0
- herbicidal effect rating, SAGPY [3, 13]: 0.0
- herbicidal effect rating, SAGPY [3, 14]: 0.0
- herbicidal effect rating, ECHORC [4, 11]: 0.0
- herbicidal effect rating, ECHORC [4, 12]: 2.0
- herbicidal effect rating, ECHORC [4, 13]: 4.0
- herbicidal effect rating, ECHORC [4, 14]: 7.0
- herbicidal effect rating, CYPSE [5, 11]: 0.0
- herbicidal effect rating, CYPSE [5, 12]: 0.0
- herbicidal effect rating, CYPSE [5, 13]: 0.0
- herbicidal effect rating, CYPSE [5, 14]: 0.0
- herbicidal effect rating ORYSAT [6, 11]: 1.0
- herbicidal effect rating ORYSAT [6, 12]: 2.0
- herbicidal effect rating ORYSAT [6, 13]: 4.0
- herbicidal effect rating ORYSAT [6, 14]: 4.0
